For the data set the following is noted: rcm bond, Grubbs II.

Like-named read-outs stand apart in the source and are kept apart here.

The compound `C[C@@H]1/C=C/C[C@H](NC(=O)OCc2ccccc2)c2cc(ccn2)-c2c(cnn2COCC[Si](C)(C)C)NC1=O` yielded a ring closure, yield of all isomers (from C=CC[C@H](NC(=O)OCc1ccccc1)c1cc(-c2c(NC(=O)[C@H](C)C=C)cnn2COCC[Si](C)(C)C)ccn1, DCE, 108.0 mM, 120.0 °C, 0.5 h) of 42%.

Take `C[C@@H]1/C=C/C[C@H](NC(=O)OC(C)(C)C)c2cc(ccn2)-c2c(cnn2C)NC1=O`: under “from C=CC[C@H](NC(=O)OC(C)(C)C)c1cc(-c2c(NC(=O)[C@H](C)C=C)cnn2C)ccn1, DCE, 34.7 mM, 120.0 °C, 0.5 h”, the ring closure, yield of all isomers was found to be 23%. Regarding `C[C@@H]1/C=C/C[C@H](NC(=O)OC(C)(C)C)c2ccnc(c2)-c2c(cnn2C)NC1=O`, the ring closure, yield of all isomers (from C=CC[C@H](NC(=O)OC(C)(C)C)c1ccnc(-c2c(NC(=O)[C@H](C)C=C)cnn2C)c1, DCE, 18.8 mM, 120.0 °C, 0.5 h) was determined as 19%. `[2H]C([2H])([2H])n1ncc2c1-c1ccnc(c1)[C@@H](NC(=O)OC(C)(C)C)CC=C[C@@H](C)C(=O)N2` yielded a ring closure, yield of all isomers (from [2H]C([2H])([2H])n1ncc(NC(=O)[C@H](C)C=C)c1-c1ccnc([C@H](CC=C)NC(=O)OC(C)(C)C)c1, DCE, 13.2 mM, 120.0 °C, 0.5 h) of 26%. The compound `C[C@@H]1/C=C/C[C@H](NC(=O)OC(C)(C)C)c2cc(ccn2)-c2c(cnn2C(F)F)NC1=O` registered a ring closure, yield of all isomers (from C=CC[C@H](NC(=O)OC(C)(C)C)c1cc(-c2c(NC(=O)[C@H](C)C=C)cnn2C(F)F)ccn1, EtOAc, 5.0 mM, 77.0 °C, 24.0 h) of 76%.

The values are drawn from EP3828186B1.
